Experimental data from PubChem BioAssay AID330 (DTP/NCI, 2004).
Values joined by “and” are separate entries in the source; they are usually repeats but may differ in a detail not shown here. Equal values may be shown once. Toxic doses and inconclusive results are not listed.

Test system: P388 leukemia ip, CD2F1 mice, survival T/C
Experiment: NCI In Vivo Anticancer Drug Screen. Data for tumor model P388 Leukemia (intraperitoneal) in CD2F1 (CDF1) mice
Details: endpoint: median survival time, higher = longer survival
In short: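 Mice carrying the transplanted tumor received test compound or vehicle. Survival was recorded in each group, and the value is the treated-group measurement divided by that of the vehicle-treated control group.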

[1] = dose: 50.0 mg/kg/injection, schedule: Q01DX005 (ip), vehicle: saline with Tween-80
[2] = dose: 100.0 mg/kg/injection, schedule: Q01DX005 (ip), vehicle: saline with Tween-80
[3] = dose: 200.0 mg/kg/injection, schedule: Q01DX005 (ip), vehicle: saline with Tween-80
[4] = dose: 50.0 mg/kg/injection, schedule: Q01DX009 (ip), vehicle: saline with Tween-80
[5] = dose: 100.0 mg/kg/injection, schedule: Q01DX009 (ip), vehicle: saline with Tween-80
[6] = dose: 200.0 mg/kg/injection, schedule: Q01DX009 (ip), vehicle: saline with Tween-80
[7] = dose: 25.0 mg/kg/injection, schedule: Q04DX003 (ip), vehicle: saline with Tween-80
[8] = dose: 100.0 mg/kg/injection, schedule: Q04DX003 (ip), vehicle: saline with Tween-80
[9] = dose: 50.0 mg/kg/injection, schedule: Q01DX009 (ip), vehicle: Klucel (hydroxypropylcellulose) (HPC)
[10] = dose: 100.0 mg/kg/injection, schedule: Q01DX009 (ip), vehicle: Klucel (hydroxypropylcellulose) (HPC)
[11] = dose: 200.0 mg/kg/injection, schedule: Q01DX009 (ip), vehicle: Klucel (hydroxypropylcellulose) (HPC)
[12] = dose: 100.0 mg/kg/injection, schedule: Q04DX003 (ip), vehicle: Klucel (hydroxypropylcellulose) (HPC)
[13] = dose: 200.0 mg/kg/injection, schedule: Q04DX003 (ip), vehicle: Klucel (hydroxypropylcellulose) (HPC)

With `O=C(OCc1ccccc1)N1C[C@@H](Br)[C@H](Br)[C@H]1Cc1ccccc1` the T/C (dose: 100.0 mg/kg/injection, schedule: Q01DX001 (ip), vehicle: distilled water + alcohol) was 95 % of control and the T/C (dose: 200.0 mg/kg/injection, schedule: Q01DX001 (ip), vehicle: distilled water + alcohol) was 100 % of control.
In the case of `NC(=O)Nc1cc2oc(=O)[nH]c2cc1Cl`, the T/C [1] is reported as 94 % of control, the T/C [2] is reported as 95 % of control and the T/C [3] is reported as 90 % of control.
With `CCCCCCC(=O)/C=C/c1cc(OC)cc(OC)c1` the T/C [4] was 96 % of control, the T/C [5] was 103 % of control and the T/C [6] was 91 % of control.
With `C1CC[N-]CC1.C1CC[N-]CC1.C1CC[N-]CC1.C1CC[N-]CC1.[Cl][Co][Cl]` the T/C [7] was 100 % of control, the T/C (dose: 33.0 mg/kg/injection, schedule: Q01DX009 (ip), vehicle: saline with Tween-80) was 91 % of control and the T/C [8] was 118 % of control.
With `COc1cccc2c1C(=O)c1c(O)c3c(c(O)c1C2=O)C[C@@](O)(C(=O)CO)C[C@@H]3OC1CC(NC(=O)CN)C(O)C(C)O1` (stereo partly specified) the T/C (dose: 25.0 mg/kg/injection, schedule: Q01DX009 (ip), vehicle: other) was 93 % of control, the T/C (dose: 50.0 mg/kg/injection, schedule: Q01DX009 (ip), vehicle: other) was 94 % of control and the T/C (dose: 100.0 mg/kg/injection, schedule: Q01DX009 (ip), vehicle: other) was 96 % of control.
For `CCN(CC)Cc1c(C)[nH]c2c(ccc3c2ccc2c(=O)c(CN(CC)CC)c(C)[nH]c23)c1=O`, the T/C [9] was 93 % of control, the T/C [10] was 91 % of control and the T/C [11] was 96 % of control.
In the case of `COC(=O)[C@@]12OC[C@]34[C@H]([C@@H](O)[C@@H]1O)[C@@]1(C)CC(=O)C(OC(=O)CC(=O)OC5=C(C)[C@@H]6C[C@H]7OC(=O)[C@H](OC(=O)/C=C(\C)C(C)C)[C@H]8[C@]9(C(=O)OC)OC[C@]78[C@H]([C@@H](O)[C@@H]9O)[C@@]6(C)CC5=O)=C(C)[C@@H]1C[C@H]3OC(=O)[C@H](OC(=O)/C=C(\C)C(C)C)[C@@H]24`, the T/C (dose: 0.19 mg/kg/injection, schedule: Q01DX009 (ip), vehicle: saline + Tween-80 + alcohol) is reported as 121 % of control, the T/C (dose: 0.37 mg/kg/injection, schedule: Q01DX005 (ip), vehicle: saline + Tween-80 + alcohol) is reported as 119 % of control and the T/C (dose: 0.38 mg/kg/injection, schedule: Q01DX005 (ip), vehicle: saline + Tween-80 + alcohol) is reported as 110 % of control. The T/C (dose: 0.38 mg/kg/injection, schedule: Q01DX009 (ip), vehicle: saline + Tween-80 + alcohol) was 120 % of control, the T/C (dose: 0.75 mg/kg/injection, schedule: Q01DX005 (ip), vehicle: saline + Tween-80 + alcohol) was 114 % of control and the T/C (dose: 0.75 mg/kg/injection, schedule: Q01DX009 (ip), vehicle: saline + Tween-80 + alcohol) was 124 % of control. The T/C (dose: 1.5 mg/kg/injection, schedule: Q01DX009 (ip), vehicle: saline + Tween-80 + alcohol) was 165 % of control and the T/C (dose: 3.0 mg/kg/injection, schedule: Q01DX009 (ip), vehicle: saline + Tween-80 + alcohol) was 163 % of control.
`CCCCCCCCCCCC[S+](C)CCCCCCCC` (stereo unspecified) was tested, and the T/C (dose: 0.78 mg/kg/injection, schedule: Q01DX005 (ip), vehicle: saline with Tween-80) was 111 % of control and 117 % of control, the T/C (dose: 1.56 mg/kg/injection, schedule: Q01DX005 (ip), vehicle: saline with Tween-80) was 122 % of control and the T/C (dose: 3.13 mg/kg/injection, schedule: Q01DX005 (ip), vehicle: saline with Tween-80) was 124 % of control.
`FC(F)(F)CO[Te](OCC(F)(F)F)(OCC(F)(F)F)OCC(F)(F)F` was tested, and the T/C (dose: 12.5 mg/kg/injection, schedule: Q01DX001 (ip), vehicle: saline with Tween-80) was 106 % of control.
`NC(C(=O)O)C1=CCCCCC1` (stereo unspecified) was tested, and the T/C (dose: 25.0 mg/kg/injection, schedule: Q01DX005 (ip), vehicle: Klucel (hydroxypropylcellulose) (HPC)) was 100 % of control, the T/C (dose: 50.0 mg/kg/injection, schedule: Q01DX005 (ip), vehicle: Klucel (hydroxypropylcellulose) (HPC)) was 101 % of control and the T/C (dose: 100.0 mg/kg/injection, schedule: Q01DX005 (ip), vehicle: Klucel (hydroxypropylcellulose) (HPC)) was 106 % of control. The T/C (dose: 200.0 mg/kg/injection, schedule: Q01DX005 (ip), vehicle: Klucel (hydroxypropylcellulose) (HPC)) was 101 % of control.
With `O=C(CSC(SCC(=O)Nc1ccccc1)c1ccccc1)Nc1ccccc1` the T/C (dose: 60.0 mg/kg/injection, schedule: Q01DX005 (ip), vehicle: Klucel (hydroxypropylcellulose) (HPC)) was 101 % of control and the T/C (dose: 120.0 mg/kg/injection, schedule: Q01DX005 (ip), vehicle: Klucel (hydroxypropylcellulose) (HPC)) was 86 % of control.
With `COc1cc([C@@H]2c3cc(OC(C)=O)c(OC)cc3C[C@@H]3C(=O)OC[C@@H]23)ccc1OC(C)=O` the T/C [1] was 98 % of control, the T/C [2] was 93 % of control and the T/C [3] was 93 % of control.
For `CCCCCCCCCCN1CCC(N2CCCCC2)CC1`, the T/C (dose: 12.5 mg/kg/injection, schedule: Q01DX009 (ip), vehicle: saline) was 98 % of control, the T/C (dose: 25.0 mg/kg/injection, schedule: Q01DX009 (ip), vehicle: saline) was 100 % of control and the T/C (dose: 50.0 mg/kg/injection, schedule: Q01DX009 (ip), vehicle: saline) was 99 % of control. For the same molecule, the T/C (dose: 100.0 mg/kg/injection, schedule: Q01DX009 (ip), vehicle: saline) was 93 % of control.
In the case of `CCN(C(=S)NCCCOC)c1ccc(C)cc1`, the T/C [9] is reported as 97 % of control, the T/C [10] is reported as 86 % of control and the T/C [11] is reported as 87 % of control.
For `COc1ccc2cc1Oc1ccc(cc1)CC1c3c(cc(OC)c(OC)c3Oc3cc4c(cc3OC)CCN(C)C4C2)CCN1C` (stereo unspecified), the T/C (dose: 100.0 mg/kg/injection, schedule: Q01DX001 (ip), vehicle: saline with Tween-80) was 103 % of control and the T/C (dose: 200.0 mg/kg/injection, schedule: Q01DX001 (ip), vehicle: saline with Tween-80) was 92 % of control.
`CCN(CC)CCCN1CC(=O)N2CCCCN2C(=O)C1` was tested, and the T/C (dose: 50.0 mg/kg/injection, schedule: Q01DX005 (ip), vehicle: saline) was 102 % of control, the T/C (dose: 100.0 mg/kg/injection, schedule: Q01DX005 (ip), vehicle: saline) was 100 % of control and the T/C (dose: 200.0 mg/kg/injection, schedule: Q01DX005 (ip), vehicle: saline) was 100 % of control.
With `CC1=CCC(=O)O1` the T/C (dose: 50.0 mg/kg/injection, schedule: Q01DX009 (ip), vehicle: suspension in saline) was 100 % of control, the T/C (dose: 100.0 mg/kg/injection, schedule: Q01DX009 (ip), vehicle: suspension in saline) was 99 % of control and 88 % of control and the T/C (dose: 200.0 mg/kg/injection, schedule: Q01DX009 (ip), vehicle: suspension in saline) was 101 % of control and 87 % of control. For the same molecule, the T/C (dose: 400.0 mg/kg/injection, schedule: Q01DX009 (ip), vehicle: suspension in saline) was 98 % of control and 101 % of control.
`CC(C)(C)C1CCC=CC(=O)C1` (stereo unspecified) was tested, and the T/C [12] was 105 % of control and the T/C [13] was 113 % of control.
`CCCCCCCCCCCCCCCCOc1ccccc1CNc1cc(Cl)ccc1Cl` was tested, and the T/C [5] was 100 % of control, the T/C [8] was 100 % of control and the T/C [6] was 91 % of control. The T/C (dose: 200.0 mg/kg/injection, schedule: Q04DX003 (ip), vehicle: saline with Tween-80) was 100 % of control, the T/C (dose: 400.0 mg/kg/injection, schedule: Q01DX009 (ip), vehicle: saline with Tween-80) was 100 % of control and the T/C (dose: 400.0 mg/kg/injection, schedule: Q04DX003 (ip), vehicle: saline with Tween-80) was 86 % of control.
With `Cc1ccc(/C(=N/NS(=O)(=O)c2ccc(C)cc2)C(C)c2ccccc2)cc1` (stereo unspecified) the T/C (dose: 100.0 mg/kg/injection, schedule: Q01DX001 (ip), vehicle: Klucel (hydroxypropylcellulose) (HPC)) was 99 % of control, the T/C (dose: 200.0 mg/kg/injection, schedule: Q01DX001 (ip), vehicle: Klucel (hydroxypropylcellulose) (HPC)) was 100 % of control and the T/C (dose: 400.0 mg/kg/injection, schedule: Q01DX001 (ip), vehicle: Klucel (hydroxypropylcellulose) (HPC)) was 99 % of control.
`Cc1ccc(NC(=O)Oc2cc(C)c(Cl)cc2C)c([N+](=O)[O-])c1` was tested, and the T/C [4] was 95 % of control, the T/C [5] was 87 % of control and the T/C [6] was 91 % of control.
`NS(=O)(=O)c1ccc(N=Nc2c(O)n(-c3ccccc3)n(-c3ccccc3)c2=O)cc1` was tested, and the T/C [12] was 107 % of control, the T/C [13] was 102 % of control and the T/C (dose: 400.0 mg/kg/injection, schedule: Q04DX003 (ip), vehicle: Klucel (hydroxypropylcellulose) (HPC)) was 102 % of control.
For `Cc1ccc2c(c1)C(=O)C(CN1CCCCC1)CO2` (stereo unspecified), the T/C (dose: 100.0 mg/kg/injection, schedule: Q04DX003 (ip), vehicle: saline) was 108 % of control and the T/C (dose: 200.0 mg/kg/injection, schedule: Q04DX003 (ip), vehicle: saline) was 108 % of control.
With `CN(c1ccccc1)P(=O)(N1CC1)N1CC1` the T/C (dose: 12.5 mg/kg/injection, schedule: Q01DX009 (ip), vehicle: saline sonified) was 200 % of control, the T/C [7] was 160 % of control and 195 % of control and the T/C (dose: 37.5 mg/kg/injection, schedule: Q04DX003 (ip), vehicle: saline with Tween-80) was 186 % of control.
